Data published in the OligoGym collection.
Strand notation (5' to 3'): a small letter for the sugar, then the base; units joined by * are phosphorothioate-linked, units joined directly phosphodiester-linked; [ ] holds rarer units or linkages, { } end groups; capitals alone tell only the bases. HELM strings list units from the 5' end as sugar, base in round brackets, then linkage (d deoxyribose, r ribose, m 2'-O-methyl, p phosphodiester). [sp] = phosphorothioate linkage; d = 2'-deoxy (DNA); m = 2'-O-methyl

Columns and labels:
CTNNB1 [1] = experiment: HEK293-TLR7, 100 nM ASO, then resiquimod
CTNNB1 [2] = experiment: HEK293-TLR8, 100 nM ASO, then resiquimod
LINC-PINT [3] = experiment: HEK293-TLR7, 100 nM ASO, then resiquimod
LINC-PINT [4] = experiment: HEK293-TLR8, 100 nM ASO, then resiquimod

| Substance | TLR7 signal (NF-kB luciferase) (% of resiquimod alone) (CTNNB1 [1]) | TLR8 potentiation (NF-kB luciferase) (fold of resiquimod alone) (CTNNB1 [2]) | TLR7 signal (NF-kB luciferase) (% of resiquimod alone) (LINC-PINT [3]) | TLR8 potentiation (NF-kB luciferase) (fold of resiquimod alone) (LINC-PINT [4]) |
| --- | --- | --- | --- | --- |
| RNA1{m(C)[sp].m(U)[sp].m(C)[sp].m(A)[sp].m(U)[sp].d(T)[sp].d(A)[sp].d(T)[sp].d(A)[sp].d(T)[sp].d(T)[sp].d(T)[sp].d(A)[sp].d(C)[sp].d(T)[sp].m(A)[sp].m(A)[sp].m(A)[sp].m(G)[sp].m(C)}$$$$ | 93.5 | 3.46 |  |  |
| RNA1{m(A)[sp].m(C)[sp].m(U)[sp].m(G)[sp].m(U)[sp].d(G)[sp].d(T)[sp].d(A)[sp].d(G)[sp].d(A)[sp].d(T)[sp].d(G)[sp].d(G)[sp].d(G)[sp].d(A)[sp].m(U)[sp].m(C)[sp].m(U)[sp].m(G)[sp].m(C)}$$$$ | 99.8 | 3.43 |  |  |
| RNA1{m(A)[sp].m(G)[sp].m(A)[sp].m(U)[sp].m(C)[sp].d(T)[sp].d(G)[sp].d(G)[sp].d(C)[sp].d(A)[sp].d(G)[sp].d(C)[sp].d(C)[sp].d(C)[sp].d(A)[sp].m(U)[sp].m(C)[sp].m(A)[sp].m(A)[sp].m(C)}$$$$ | 55.4 | 1.89 |  |  |
| RNA1{m(U)[sp].m(G)[sp].m(G)[sp].m(C)[sp].m(A)[sp].d(G)[sp].d(G)[sp].d(C)[sp].d(T)[sp].d(C)[sp].d(A)[sp].d(G)[sp].d(T)[sp].d(G)[sp].d(A)[sp].m(U)[sp].m(G)[sp].m(U)[sp].m(C)[sp].m(U)}$$$$ | 50.4 | 1.73 |  |  |
| RNA1{m(U)[sp].m(U)[sp].m(U)[sp].m(U)[sp].m(A)[sp].d(A)[sp].d(G)[sp].d(C)[sp].d(A)[sp].d(T)[sp].d(A)[sp].d(T)[sp].d(T)[sp].d(A)[sp].d(A)[sp].m(A)[sp].m(A)[sp].m(A)[sp].m(G)[sp].m(G)}$$$$ | 59.4 | 3.67 |  |  |
| RNA1{m(G)[sp].m(G)[sp].m(U)[sp].m(C)[sp].m(C)[sp].d(A)[sp].d(T)[sp].d(A)[sp].d(C)[sp].d(C)[sp].d(C)[sp].d(A)[sp].d(A)[sp].d(G)[sp].d(G)[sp].m(C)[sp].m(A)[sp].m(U)[sp].m(C)[sp].m(C)}$$$$ | 105 | 1 |  |  |
| RNA1{m(C)[sp].m(A)[sp].m(U)[sp].m(A)[sp].m(U)[sp].d(T)[sp].d(A)[sp].d(A)[sp].d(A)[sp].d(A)[sp].d(A)[sp].d(G)[sp].d(G)[sp].d(A)[sp].d(A)[sp].m(A)[sp].m(C)[sp].m(U)[sp].m(A)[sp].m(A)}$$$$ | 108 | 2.31 |  |  |
| RNA1{m(C)[sp].m(C)[sp].m(A)[sp].m(C)[sp].m(C)[sp].d(C)[sp].d(A)[sp].d(C)[sp].d(T)[sp].d(T)[sp].d(G)[sp].d(G)[sp].d(C)[sp].d(A)[sp].d(G)[sp].m(A)[sp].m(C)[sp].m(C)[sp].m(A)[sp].m(U)}$$$$ | 86.9 | 0.99 |  |  |
| RNA1{m(G)[sp].m(G)[sp].m(G)[sp].m(A)[sp].m(A)[sp].d(A)[sp].d(G)[sp].d(G)[sp].d(T)[sp].d(T)[sp].d(A)[sp].d(T)[sp].d(G)[sp].d(C)[sp].d(A)[sp].m(A)[sp].m(G)[sp].m(G)[sp].m(U)[sp].m(C)}$$$$ | 51.4 | 1.76 |  |  |
| RNA1{m(C)[sp].m(G)[sp].m(A)[sp].m(A)[sp].m(U)[sp].d(G)[sp].d(A)[sp].d(A)[sp].d(T)[sp].d(T)[sp].d(A)[sp].d(A)[sp].d(A)[sp].d(A)[sp].d(G)[sp].m(U)[sp].m(U)[sp].m(U)[sp].m(A)[sp].m(A)}$$$$ | 104 | 3.01 |  |  |
| RNA1{m(C)[sp].m(A)[sp].m(A)[sp].m(U)[sp].m(G)[sp].d(G)[sp].d(G)[sp].d(A)[sp].d(G)[sp].d(A)[sp].d(A)[sp].d(T)[sp].d(A)[sp].d(A)[sp].d(A)[sp].m(G)[sp].m(C)[sp].m(A)[sp].m(G)[sp].m(C)}$$$$ | 73.7 | 2.5 |  |  |
| RNA1{m(G)[sp].m(C)[sp].m(U)[sp].m(U)[sp].m(A)[sp].d(T)[sp].d(T)[sp].d(T)[sp].d(T)[sp].d(A)[sp].d(A)[sp].d(G)[sp].d(C)[sp].d(A)[sp].d(T)[sp].m(A)[sp].m(U)[sp].m(U)[sp].m(A)[sp].m(A)}$$$$ | 41.1 | 1.9 |  |  |
| RNA1{m(C)[sp].m(U)[sp].m(U)[sp].m(A)[sp].m(U)[sp].d(A)[sp].d(A)[sp].d(T)[sp].d(T)[sp].d(A)[sp].d(T)[sp].d(T)[sp].d(G)[sp].d(C)[sp].d(A)[sp].m(A)[sp].m(G)[sp].m(U)[sp].m(G)[sp].m(A)}$$$$ | 74.9 | 2.78 |  |  |
| RNA1{m(G)[sp].m(G)[sp].m(U)[sp].m(G)[sp].m(G)[sp].d(T)[sp].d(G)[sp].d(G)[sp].d(C)[sp].d(C)[sp].d(A)[sp].d(C)[sp].d(C)[sp].d(C)[sp].d(A)[sp].m(U)[sp].m(C)[sp].m(U)[sp].m(C)[sp].m(A)}$$$$ | 75.6 | 1.11 |  |  |
| RNA1{m(A)[sp].m(U)[sp].m(U)[sp].m(U)[sp].m(U)[sp].d(A)[sp].d(A)[sp].d(G)[sp].d(C)[sp].d(A)[sp].d(T)[sp].d(A)[sp].d(T)[sp].d(T)[sp].d(A)[sp].m(A)[sp].m(A)[sp].m(A)[sp].m(A)[sp].m(G)}$$$$ | 47 | 2.37 |  |  |
| RNA1{m(A)[sp].m(C)[sp].m(C)[sp].m(C)[sp].m(A)[sp].d(A)[sp].d(G)[sp].d(G)[sp].d(C)[sp].d(A)[sp].d(T)[sp].d(C)[sp].d(C)[sp].d(T)[sp].d(G)[sp].m(G)[sp].m(C)[sp].m(C)[sp].m(A)[sp].m(U)}$$$$ | 70.7 | 2.29 |  |  |
| RNA1{m(C)[sp].m(A)[sp].m(G)[sp].m(A)[sp].m(U)[sp].d(A)[sp].d(G)[sp].d(C)[sp].d(A)[sp].d(C)[sp].d(C)[sp].d(T)[sp].d(T)[sp].d(C)[sp].d(A)[sp].m(G)[sp].m(C)[sp].m(A)[sp].m(C)[sp].m(U)}$$$$ | 126 | 3.22 |  |  |
| RNA1{m(C)[sp].m(A)[sp].m(C)[sp].m(C)[sp].m(C)[sp].d(A)[sp].d(C)[sp].d(T)[sp].d(T)[sp].d(G)[sp].d(G)[sp].d(C)[sp].d(A)[sp].d(G)[sp].d(A)[sp].m(C)[sp].m(C)[sp].m(A)[sp].m(U)[sp].m(C)}$$$$ | 91.5 | 1.12 |  |  |
| RNA1{m(A)[sp].m(C)[sp].m(C)[sp].m(A)[sp].m(C)[sp].d(C)[sp].d(C)[sp].d(A)[sp].d(C)[sp].d(T)[sp].d(T)[sp].d(G)[sp].d(G)[sp].d(C)[sp].d(A)[sp].m(G)[sp].m(A)[sp].m(C)[sp].m(C)[sp].m(A)}$$$$ | 63.4 | 1.71 |  |  |
| RNA1{m(U)[sp].m(G)[sp].m(U)[sp].m(G)[sp].m(G)[sp].d(C)[sp].d(T)[sp].d(T)[sp].d(G)[sp].d(T)[sp].d(C)[sp].d(C)[sp].d(T)[sp].d(C)[sp].d(A)[sp].m(G)[sp].m(A)[sp].m(C)[sp].m(A)[sp].m(U)}$$$$ | 47.1 | 1.57 |  |  |
| RNA1{m(C)[sp].m(U)[sp].m(U)[sp].m(A)[sp].m(U)[sp].d(T)[sp].d(T)[sp].d(T)[sp].d(A)[sp].d(A)[sp].d(G)[sp].d(C)[sp].d(A)[sp].d(T)[sp].d(A)[sp].m(U)[sp].m(U)[sp].m(A)[sp].m(A)[sp].m(A)}$$$$ | 123 | 2.88 |  |  |
| RNA1{m(U)[sp].m(A)[sp].m(G)[sp].m(C)[sp].m(G)[sp].d(T)[sp].d(G)[sp].d(T)[sp].d(C)[sp].d(T)[sp].d(G)[sp].d(G)[sp].d(A)[sp].d(A)[sp].d(G)[sp].m(C)[sp].m(U)[sp].m(U)[sp].m(C)[sp].m(C)}$$$$ | 60.3 | 1.56 |  |  |
| RNA1{m(G)[sp].m(C)[sp].m(C)[sp].m(G)[sp].m(C)[sp].d(T)[sp].d(T)[sp].d(T)[sp].d(T)[sp].d(C)[sp].d(T)[sp].d(G)[sp].d(T)[sp].d(C)[sp].d(T)[sp].m(G)[sp].m(G)[sp].m(U)[sp].m(U)[sp].m(C)}$$$$ | 70.5 | 2 |  |  |
| RNA1{m(C)[sp].m(A)[sp].m(G)[sp].m(A)[sp].m(U)[sp].d(T)[sp].d(A)[sp].d(C)[sp].d(A)[sp].d(A)[sp].d(T)[sp].d(T)[sp].d(A)[sp].d(A)[sp].d(T)[sp].m(U)[sp].m(A)[sp].m(G)[sp].m(A)[sp].m(G)}$$$$ | 80.8 | 2.76 |  |  |
| mC*mU*mU*mC*mU*dC*dT*dC*dT*dG*dG*dT*dC*dC*dC*mA*mU*mC*mC*mC |  |  | 56.2 | 2.92 |
| mC*mU*mU*mU*mA*dT*dA*dT*dT*dA*dC*dA*dA*dA*dG*mC*mU*mA*mC*mU |  |  | 54.8 | 2.11 |
| mG*mC*mA*mA*mG*dG*dC*dA*dG*dA*dG*dA*dA*dA*dC*mU*mC*mC*mA*mG |  |  | 20 | 1.45 |
| mU*mU*mU*mG*mA*dA*dA*dT*dT*dC*dA*dG*dA*dA*dG*mA*mU*mU*mU*mG |  |  | 35.1 | 2.57 |
| mC*mC*mC*mU*mU*dC*dT*dC*dT*dC*dT*dG*dG*dT*dC*mC*mC*mA*mU*mC |  |  | 49.6 | 2.6 |
| mU*mU*mA*mG*mC*dT*dC*dC*dT*dT*dG*dC*dC*dT*dC*mG*mU*mU*mC*mC |  |  | 31.7 | 3.43 |
